Assay results: patent publication US8779141B2, “Viral inhibitors” (Gilead Sciences, Inc., priority 2002, dated 2014)
≈ marks a conversion by molar mass, not a printed value. Read-outs that look alike come from different tables or passages of the source.

Assays:
[1] = system: BVDV-1 (strain PE515); assay: Anti-BVDV assay, virus-induced cytopathic effect in MDBK cells (MTS); format: cell-based, Bovine Viral Diarrhea Virus; conditions: Bovine viral diarrhea virus isolates and strains
Method: Madin-Darbey Bovine Kidney (MDBK) cells were maintained in Dulbecco's modified Eagle medium (DMEM) supplemented with BVDV-free 5% fetal calf serum (DMEME-FCS) at 37° C. in a humidified, 5% CO2 atmosphere. BVDV-1 (strain PE515) was used to assess the antiviral activity in MDBK cells. Vero cells were maintained in the same way as MDBK cells. Vero cells were infected with Coxsackie B3 virus (strain Nancy).
Ninety-six-well cell culture plates were seeded with MDBK cells in DMEM-FCS so that cells reached 24 hr later confluency. Then medium was removed and serial 5-fold dilutions of the test compounds were added in a total volume of 100 ul, after which the virus inoculum (100 ul) was added to each well. […] Uninfected cells and cells receiving virus without compound were included in each assay plate. After 5 days, medium was removed and 90 μl of DMEM-FCS and 10 ul of MTS/PMS solution (Promega) was added to each well. Following a 2 hr incubation period at 37° C. the optical density of the wells was read at 498 nm in a microplate reader.

[2] = Cytostatic effect on exponentially growing MDBK cells (MTS); format: cell-based, Bovine; conditions: bovine; Table 9; reduction of growth of exponentially growing MDBK cells by 50%; mean of 2-5 determinations
Method: Madin-Darbey Bovine Kidney (MDBK) cells were maintained in Dulbecco's modified Eagle medium (DMEM) supplemented with BVDV-free 5% fetal calf serum ([…]) at 37° C. in a humidified, 5% CO2 atmosphere. […] Vero cells were maintained in the same way as MDBK cells. […] The effect of the drugs on exponentially growing MDBK cells was assessed as follows. Cells were seeded at a density of 5000 cell/well in 96 well plates in MEM medium (Gibco) supplemented with 10% fetal calf serum, 2 mM L-glutamine (Life Technologies) and bicarbonate (Life Technologies). […] Cultures were then again further incubated for 3 days after which the effect on cell growth was quantified by means of the MTS method (Promega).

[3] = Table 9, reduction of virus induced cytopathic effect in MDBK cells by 50%, BVDV strain PE515, mean of 2-5 determinations, read-out: EC50

| SMILES | EC50 [1, 3] [µg/mL] | CC50 at 3 days [2] [µg/mL] | EC50 ([1]; MDBK) [µg/mL] |
| --- | --- | --- | --- |
| C(=Cc1ccccc1)Cn1ccc2nc(-c3ccccc3)nc-2c1 [GPJN-75, 2-Phenyl-5-(3-phenyl-2-propenyl)-5H-imidazo[4,5-c]pyridine] | 0.018 (≈ 0.0578 µM) | 31.7 (≈ 102 µM) | – |
| Ic1ccc(Cn2ccc3nc(-c4ccccc4)nc-3c2)cc1 [GPJN-68, 5-[(4-Iodophenyl)methyl]-2-phenyl-5H-imidazo[4,5-c]pyridine] | 0.026 (≈ 0.0632 µM) | 17 (≈ 41.3 µM) | – |
| CC(C)CCn1ccc2nc(-c3ccccc3)nc-2c1 [GPJN-38, 5-(3-Methylbutyl)-2-phenyl-5H-imidazo[4,5-c]pyridine] | 0.235 (≈ 0.886 µM) | 50 (≈ 188 µM) | – |
| Clc1ccc(Cn2ccc3nc(-c4cccc(Br)c4)nc-3c2)cc1 [GPJN-80, 2-(3-Bromophenyl)-5-[(4-chlorophenyl)methyl]-5H-imidazo[4,5-c]pyridine] | 0.18 (≈ 0.451 µM) | > 100 | – |
| Brc1ccc(Cn2ccc3nc(-c4ccccc4)nc-3c2)cc1 [GPJN-22, 5-[(4-Bromophenyl)methyl]-2-phenyl-5H-imidazo[4,5-c]pyridine] | 0.029 (≈ 0.0796 µM) | 13 (≈ 35.7 µM) | – |
| N#Cc1ccc(Cn2ccc3nc(-c4ccccc4)nc-3c2)cc1 [GPJN-23, 4-[(2-Phenyl-5H-imidazo[4,5-c]pyridin-5-yl)methyl]-benzonitrile] | 0.014 (≈ 0.0451 µM) | 46 (≈ 148 µM) | – |
| c1ccc(-c2nc3ccn(Cc4ccc5ccccc5c4)cc-3n2)cc1 [GPJN-26, 5-(2-Naphthalenylmethyl)-2-phenyl-5H-imidazo[4,5-c]pyridine] | 0.041 (≈ 0.122 µM) | > 100 | – |
| Fc1ccccc1Cn1ccc2nc(-c3ccccc3)nc-2c1 [GPJN-17, 5-[(2-Fluorophenyl)methyl]-2-phenyl-5H-imidazo[4,5-c]pyridine] | 0.097 (≈ 0.32 µM) | 50 (≈ 165 µM) | – |
| Fc1ccc(Cn2ccc3nc(-c4ccccc4)nc-3c2)cc1 [GPJN-19, 5-[(4-Fluorophenyl)methyl]-2-phenyl-5H-imidazo[4,5-c]pyridine] | 0.013 (≈ 0.0429 µM) | 40 (≈ 132 µM) | – |
| Fc1ccc(Cn2ccc3nc(-c4c(F)cccc4F)nc-3c2)cc1 [GPJN-39, 2-(2,6-Difluorophenyl)-5-[(4-fluorophenyl)methyl]-5H-imidazo[4,5-c]pyridine] | 0.245 (≈ 0.722 µM) | > 100 | – |
| Fc1ccc(Cn2ccc3nc(-c4cc(F)ccc4F)nc-3c2)c(F)c1 [GPC-13, 2-(2,5-Difluorophenyl)-5-[(2,4-difluorophenyl)methyl]-5H-imidazo[4,5-c]pyridine] | 0.067 (≈ 0.188 µM) | > 100 | – |
| Cc1ccc(Cn2ccc3nc(-c4ccccc4)nc-3c2)cc1 [GPJN-15, 5-[(4-Methylphenyl)methyl]-2-phenyl-5H-imidazo[4,5-c]pyridine] | 0.009 (≈ 0.0301 µM) | 29 (≈ 96.9 µM) | – |
| Cc1ccccc1Cn1ccc2nc(-c3ccccc3)nc-2c1 [GPJN-20, 5-[(2-Methylphenyl)methyl]-2-phenyl-5H-imidazo[4,5-c]pyridine] | 0.165 (≈ 0.551 µM) | 28 (≈ 93.5 µM) | – |
| c1ccc(Cn2ccc3nc(-c4ccccc4)nc-3c2)cc1 [GPJN-4, 5-Benzyl-2-phenyl-5H-imidazo[4,5-c]pyridine] | 0.04 (≈ 0.14 µM) | 46 (≈ 161 µM) | – |
| Cc1cccc(Cn2ccc3nc(-c4ccccc4)nc-3c2)c1 [GPJN-21, 5-[(3-Methylphenyl)methyl]-2-phenyl-5H-imidazo[4,5-c]pyridine] | 0.022 (≈ 0.0735 µM) | 22 (≈ 73.5 µM) | – |
| c1ccc(OCCn2ccc3nc(-c4ccccc4)nc-3c2)cc1 [GPJN-73, 5-(2-Phenoxyethyl)-2-phenyl-5H-imidazo[4,5-c]pyridine] | 0.017 (≈ 0.0539 µM) | > 100 | – |
| Brc1ccc(Cn2ccc3nc(-c4ccncc4)nc-3c2)cc1 [GPJN-49, 5-[(4-Bromophenyl)methyl]-2-(4-pyridinyl)-5H-imidazo[4,5-c]pyridine] | 0.18 (≈ 0.493 µM) | 62 (≈ 170 µM) | – |
| Brc1ccc(Cn2ccc3nc(-c4cccc(Br)c4)nc-3c2)cc1 [GPJN-65, 2-(3-Bromophenyl)-5-[(4-bromophenyl)methyl]-5H-imidazo[4,5-c]pyridine] | – | > 100 | 0.01 (≈ 0.0226 µM) |
| Clc1cccc(-c2nc3ccn(Cc4ccc(Br)cc4)cc-3n2)c1 [GPJN-55, 5-[(4-Bromophenyl)methyl]-2-(3-chlorophenyl)-5H-imidazo[4,5-c]pyridine] | 0.06 (≈ 0.15 µM) | > 100 | – |
| CCc1nc2ccn(Cc3ccc(Br)cc3)cc-2n1 [GPJN-48, 5-[(4-Bromophenyl)methyl]-2-ethyl-5H-imidazo[4,5-c]pyridine] | 0.351 (≈ 1.11 µM) | > 100 | – |
